How the values were obtained:
[1] = target: T1, rat prostate ornithine decarboxylase (Rattus norvegicus, UniProt P09057); conditions: Metcalf et al 1979; cited from earlier work
T1 construct: host or cells: rat prostate
T1 sequence (P09057 1-461): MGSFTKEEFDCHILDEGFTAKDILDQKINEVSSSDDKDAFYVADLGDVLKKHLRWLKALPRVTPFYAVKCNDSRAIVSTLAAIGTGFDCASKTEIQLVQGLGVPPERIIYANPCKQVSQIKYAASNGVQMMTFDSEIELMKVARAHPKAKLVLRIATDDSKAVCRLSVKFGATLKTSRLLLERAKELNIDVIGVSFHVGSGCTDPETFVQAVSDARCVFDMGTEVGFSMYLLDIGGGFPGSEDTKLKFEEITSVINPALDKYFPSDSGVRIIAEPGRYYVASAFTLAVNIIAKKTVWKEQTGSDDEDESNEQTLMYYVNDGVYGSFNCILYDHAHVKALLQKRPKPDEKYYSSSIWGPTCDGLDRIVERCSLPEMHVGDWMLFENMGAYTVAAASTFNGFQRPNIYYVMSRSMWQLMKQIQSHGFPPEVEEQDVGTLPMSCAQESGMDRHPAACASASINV

[2] = target: T2, rat liver ornithine decarboxylase (Rattus norvegicus, UniProt P09057); conditions: Metcalf et al 1979; cited from earlier work
T2 construct: host or cells: rat liver
T2 sequence (P09057 1-461): T1 sequence (P09057 1-461)

[3] = test system: Male Sim:(S.D.)fBR rats; assay: In vivo potentiation of L-DOPA induced behaviors; set-up: species or system rat; conditions: for Mean Behavior Score at 60 min.: score scale 0-6, before 200 mg/kg L-DOPA i.p.
Experimental: Male Sim:(S.D.)fBR rats weighing 180-335 g were used for these experiments. Groups of 5 rats were individually housed and received water, or various doses of either 2-amino-2-(3-hydroxybenzyl)penta-3,4-dienoic acid or 2-amino-2-(3,4-dihydroxybenzyl)penta-3,4-dienoic acid 30 l minutes before 200 mg/kg of L-DOPA, i.p. Beginning 15 minutes later, behavioral observations were made at 15 minutes intervals for 2 hours. Behavoir was scored as follows:
3=Alert with intermittent sniffing

[4] = target: T3, mammalian DOPA decarboxylase from porcine kidney (Sus scrofa, UniProt P80041); assay: Time dependent inactivation of DOPA decarboxylase; type: biochemical; conditions: porcine kidney enzyme
T3 construct: isolated and purified from porcine kidney; from tissue; host or cells: porcine kidney
T3 sequence (P80041 1-486): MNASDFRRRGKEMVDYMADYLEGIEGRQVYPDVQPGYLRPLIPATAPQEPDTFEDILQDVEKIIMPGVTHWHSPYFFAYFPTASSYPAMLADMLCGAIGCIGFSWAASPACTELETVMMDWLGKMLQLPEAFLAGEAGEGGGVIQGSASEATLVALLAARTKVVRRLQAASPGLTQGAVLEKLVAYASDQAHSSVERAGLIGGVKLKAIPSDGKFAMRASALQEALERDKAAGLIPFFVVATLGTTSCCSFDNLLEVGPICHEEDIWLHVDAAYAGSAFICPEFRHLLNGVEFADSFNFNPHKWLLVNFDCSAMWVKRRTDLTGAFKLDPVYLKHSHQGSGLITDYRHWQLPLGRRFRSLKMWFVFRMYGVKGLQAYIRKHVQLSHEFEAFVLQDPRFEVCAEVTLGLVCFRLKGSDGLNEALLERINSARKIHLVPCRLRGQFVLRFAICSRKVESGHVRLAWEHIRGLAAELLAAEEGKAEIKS
Excerpt: (§1) Mammalian DOPA decarboxylase was isolated and purified from porcine kidney by the procedure of Borri-Voltatorni et al [Eur. J. Biochem., 93, 181 (1979)] with modifications as introduced by Rudd and Thanassi [Biochemistry, 20, 7469 (1981)]. Bacterial L-phenylalanine and L-tyrosine decarboxylases ex Streptococcus faecallis were purchased from Sigma Chemical Co. as crude extracts and studied without further purification.
Time dependent inactivation of mammalian DOPA decarboxylase was monitored by incubation of enzyme with 4 to 100 molar equivalent excess of 2-amino-2-(3,4-dihydroxybenzyl)penta-3,4-dienoic acid at pH 6.8 and 37° C. At appropriate time intervals, aliquots of the mixture were withdrawn, diluted 30-fold into excess L-DOPA (2 mM) and residual DOPA decarboxylase activity determined.
DOPA decarboxylase activity was routinely measured by liquid chromatography and electrochemical detection of catecholamine products. DOPA decarboxylase (1-5 micrograms, 1-20 units) was incubated with L-DOPA (2000 micromolar, 150 microliters) and PLP (10 micromolar) in 0.1M phosphate at pH 6.8 and 37° C. After 1-10 minutes, the reaction was quenched with citric acid (2M, 25 microliters), diluted two-fold with distilled water and 10 microliter aliquots were analyzed by HPLC on a reverse phase Brownlee RP-18 column. Isocratic elution with pH 4.35 buffer [0.1M NaOAc ([…]), 0.1M citric acid (32% v/v) and methanol (15% v/v)] at a flow rate of 2.5 ml/min. afforded baseline resolution of dopamine (RT=2.8 min.) from L-DOPA (RT=1.9 min.).
Quantification of dopamine was accomplished by preoxidation of the catechol to the ortho quinone at +0.25 volts in the first analytical electrochemical cell, followed by the selective reduction of ortho quinone in the second analytical cell set at -0.25 volts. This configuration for the ESA electrochemical detector allowed highly sensitive and selective detection of catecholamines (less than 10 picomoles/injection).

[5] = target: T4, bacterial tyrosine decarboxylase from Streptococcus faecallis (Enterococcus faecalis, UniProt Q838D6); assay: Time dependent inactivation of tyrosine decarboxylase; type: biochemical; conditions: Streptococcus faecallis enzyme
T4 construct: purchased from Sigma Chemical Co. as crude extracts; purchased Sigma Chemical Co; host or cells: Streptococcus faecalis, crude extract
T4 sequence (Q838D6 1-620): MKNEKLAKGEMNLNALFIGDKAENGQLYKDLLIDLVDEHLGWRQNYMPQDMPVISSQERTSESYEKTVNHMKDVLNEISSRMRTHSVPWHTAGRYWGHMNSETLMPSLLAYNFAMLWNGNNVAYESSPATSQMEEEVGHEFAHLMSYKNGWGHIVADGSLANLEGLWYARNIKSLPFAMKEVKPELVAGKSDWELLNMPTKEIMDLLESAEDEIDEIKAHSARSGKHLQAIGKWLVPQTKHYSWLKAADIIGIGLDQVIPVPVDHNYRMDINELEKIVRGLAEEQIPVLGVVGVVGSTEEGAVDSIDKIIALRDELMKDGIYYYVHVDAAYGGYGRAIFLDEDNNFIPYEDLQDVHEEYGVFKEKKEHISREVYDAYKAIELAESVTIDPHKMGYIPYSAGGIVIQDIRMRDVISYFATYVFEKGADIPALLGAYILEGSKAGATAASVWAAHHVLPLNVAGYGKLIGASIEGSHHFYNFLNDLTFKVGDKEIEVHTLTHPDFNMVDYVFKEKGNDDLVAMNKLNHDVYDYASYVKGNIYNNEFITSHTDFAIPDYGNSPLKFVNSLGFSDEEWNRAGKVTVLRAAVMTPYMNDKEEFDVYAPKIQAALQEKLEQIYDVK
Excerpt: as §1
(§2) The time dependent inactivation of bacterial aromatic amino acid decarboxylases with 200-1000 micromolar inhibitor, e.g. 2-amino-2-(4-hydroxybenzyl)-penta-3,4-dienoic acid or 2-amino-2-benzylpenta-3,4-dienoic acid, was monitored at pH 5.5 and 37° C. Residual activity of tyrosine decarboxylase ex Streptococcus faecallis was determined by measurement of p-tyramine production at pH 5.5 and 37° C. p-Tyramine was separated by HPLC and quantified by electrochemical oxidation at +0.7 volts.

[6] = target: T5, phenylalanine decarboxylase from Streptococcus faecallis (Enterococcus faecalis, UniProt Q838D6); assay: Time dependent inactivation of phenylalanine decarboxylase; type: biochemical; conditions: Streptococcus faecallis enzyme
T5 construct: L-phenylalanine substrate, phenylethylamine by GC
T5 sequence (Q838D6 1-620): T4 sequence (Q838D6 1-620)
Excerpt: as §1, §2
Residual activity of L-phenylalanine decarboxylase ex Streptococcus faecallis with L-phenylalanine (2 mM) as substrate was meaasured by gas chromatographic analysis of phenylethylamine production. Direct injection of enzymatic reaction mixture (1-5 microliters) onto a standard glass column packed with 10% Apiezon L on Chromosorb 80/100 deactivated with 2% KOH allowed separation of aromatic amine from the reaction mixture. FID detection quantified the rate of product formation.

[7] = target: bacterial glutamate decarboxylase (Escherichia coli, UniProt P69910); conditions: Jung et al 1978; cited from earlier work
Sequence of bacterial glutamate decarboxylase (P69910 whole entry): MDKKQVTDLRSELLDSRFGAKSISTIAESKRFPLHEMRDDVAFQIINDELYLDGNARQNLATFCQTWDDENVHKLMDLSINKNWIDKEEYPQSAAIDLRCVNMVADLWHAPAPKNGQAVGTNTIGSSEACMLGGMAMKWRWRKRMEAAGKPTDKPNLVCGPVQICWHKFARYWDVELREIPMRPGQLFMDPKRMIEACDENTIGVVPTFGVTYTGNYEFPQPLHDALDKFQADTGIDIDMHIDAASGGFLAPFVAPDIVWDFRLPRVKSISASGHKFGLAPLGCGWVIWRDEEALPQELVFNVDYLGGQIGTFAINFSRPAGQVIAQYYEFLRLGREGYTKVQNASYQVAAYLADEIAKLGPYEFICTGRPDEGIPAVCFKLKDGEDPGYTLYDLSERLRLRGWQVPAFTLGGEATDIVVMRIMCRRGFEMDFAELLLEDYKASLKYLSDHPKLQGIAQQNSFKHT

[8] = test system: mammalian glutamate decarboxylase; conditions: Jung et al 1978; cited from earlier work
[9] = test system: rat brain glutamate decarboxylase; conditions: Crystal et al 1977; cited from earlier work
[10] = target: T6, aromatic amino acid decarboxylase (Sus scrofa, UniProt P80041); conditions: Maycock et al; cited from earlier work
T6 sequence (P80041 1-486): T3 sequence (P80041 1-486)

[11] = target: T7, ornithine decarboxylase (Homo sapiens, UniProt P11926); conditions: Relyea and Rando 1975; cited from earlier work
T7 sequence (P11926 1-461): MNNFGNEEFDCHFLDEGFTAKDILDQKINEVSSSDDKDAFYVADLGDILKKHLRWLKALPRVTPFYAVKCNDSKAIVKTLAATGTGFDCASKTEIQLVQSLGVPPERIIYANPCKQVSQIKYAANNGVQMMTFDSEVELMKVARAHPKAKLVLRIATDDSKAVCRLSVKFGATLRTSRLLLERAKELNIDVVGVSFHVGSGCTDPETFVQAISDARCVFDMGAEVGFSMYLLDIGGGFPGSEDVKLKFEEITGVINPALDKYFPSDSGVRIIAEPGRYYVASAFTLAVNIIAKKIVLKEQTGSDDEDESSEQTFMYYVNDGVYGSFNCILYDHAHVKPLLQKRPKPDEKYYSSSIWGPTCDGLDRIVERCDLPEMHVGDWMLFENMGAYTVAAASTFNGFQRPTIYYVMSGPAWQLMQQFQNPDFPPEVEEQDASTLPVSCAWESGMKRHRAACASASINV

SMILES | irreversible inactivation of DOPA decarboxylase [4] | irreversible inactivation of tyrosine decarboxylase [5] | irreversible inactivation of phenylalanine decarboxylase [6] | other results
C#CC(N)CCCN (single isomer, unassigned; (-)) [(-)-5-hexyne-1,4-diamine] | – | – | – | inhibition of ornithine decarboxylase [1]: potent time-dependent inhibitor; inhibition of ornithine decarboxylase [2]: potent time-dependent inhibitor
C=C=CC(N)(Cc1ccc(O)c(O)c1)C(=O)O (centres unmarked) [2-amino-2-(3,4-dihydroxybenzyl)penta-3,4-dienoic acid] | irreversible inactivators | irreversible inactivators | irreversible inactivators | potentiation of the behaviors induced by L-DOPA ([3]; 30 mg/kg i.p. or s.c., 30 minutes before 200 mg/kg L-DOPA i.p.): active; Mean Behavior Score at 60 min. ([3]; 30 mg/kg i.p.): 4.0; Mean Behavior Score at 60 min. ([3]; 30 mg/kg s.c.): 4.0; potentiation of DOPA behaviors ([3]; 3 to 30 mg/kg i.p. or 30 to 150 mg/kg s.c.): potentiate DOPA behaviors
CC=C=CC(N)(Cc1cccc(O)c1)C(=O)O (centres unmarked) [2-amino-2-(3-hydroxybenzyl)hexa-3,4-dienoic acid] | irreversible inactivators | irreversible inactivators | irreversible inactivators | –
C=C=CC(N)(Cc1ccc(O)cc1)C(=O)O (centres unmarked) [2-amino-2-(4-hydroxybenzyl)penta-3,4-dienoic acid] | irreversible inactivators | irreversible inactivators | irreversible inactivators | –
CC=C=CC(N)(Cc1ccccc1)C(=O)O (centres unmarked) [2-amino-2-benzylhexa-3,4-dienoic acid] | irreversible inactivators | irreversible inactivators | irreversible inactivators | –
C=C=CC(N)(Cc1ccccc1)C(=O)O (centres unmarked) [2-amino-2-benzylpenta-3,4-dienoic acid] | irreversible inactivators | irreversible inactivators | irreversible inactivators | –
C#C[C@H](N)CCC(=O)O [(R) 4-amino-hex-5-ynoic acid] | – | – | – | inhibition of glutamate decarboxylase [7]: inhibit; inhibition of glutamate decarboxylase [8]: inhibit
CC(N)(/C=C/C(=O)O)C(=O)O (stereo not drawn) [α-methyl-trans-dehydroglutamic acid] | – | – | – | inhibition of glutamate decarboxylase [9]: irreversibly inhibits
C=CC(N)Cc1ccc(O)c(O)c1 (stereo not drawn) [α-vinyl-dopamine] | – | – | – | inactivation of aromatic amino acid decarboxylase [10]: slow-time dependent inactivation
NCC=CC(N)C(=O)O (stereo not drawn) [β, γ-dehydroornithine] | – | – | – | inhibition of ornithine decarboxylase [11]: very potent competitive inhibitor
